Assay results from ChEMBL document CHEMBL2417397, “Synthesis and biological properties of new N-Mannich bases derived from 3-methyl-3-phenyl- and 3,3-dimethyl-succinimides. Part V” (Eur J Med Chem, 2013).
Activity calls are given as the source filed them. The calls are words filed in the database; no cut-off is given here.

Assays:
Mus musculus [1] = test: Anticonvulsant activity in CF-1 albino mouse assessed as protection against maximal electroshock-induced seizures at 300 mg/kg, ip after 0.5 hrs; assay type: functional, organism-based; set-up: dose 300 mg/kg
Vibrio harveyi [2] = test: Induction of mutagenecity in Vibrio harveyi BB7M; assay type: organism-based; conditions: in vivo
Rattus norvegicus [3] = test: Anticonvulsant activity in po dosed Sprague-Dawley albino rat assessed as protection against maximal electroshock-induced seizures after 0.25 to 4 hrs; assay type: functional
Vibrio harveyi [4] = test: Induction of mutagenecity in Vibrio harveyi BB7XM; assay type: organism-based; conditions: in vivo
Rattus norvegicus [5] = test: Anticonvulsant activity in Sprague-Dawley albino rat assessed as protection against maximal electroshock-induced seizures at 30 mg/kg, po after 2 hrs; assay type: functional
Vibrio harveyi [6] = test: Antimutagenic activity in Vibrio harveyi BB7XM assessed as inhibition of 4-nitroquinoline-N-oxide-induced mutation; assay type: functional
Rattus norvegicus [7] = test: Neurotoxicity in Sprague-Dawley albino rat assessed as motor impairment at 30 mg/kg, po; assay type: toxicity, organism-based; set-up: dose 30 mg/kg, route oral; conditions: in vivo
[8] = Neurotoxicity in po dosed Sprague-Dawley albino rat at 30 mg/kg, po after 0.25 to 4 hrs by rotarod test; assay type: toxicity, organism-based; set-up: dose 30 mg/kg, route oral; conditions: in vivo
Rattus norvegicus [9] = test: Anticonvulsant activity in Sprague-Dawley albino rat assessed as protection against maximal electroshock-induced seizures at 30 mg/kg, po after 1 hr; assay type: functional
Vibrio harveyi [10] = test: Induction of mutagenecity in Vibrio harveyi BB7; assay type: organism-based; conditions: in vivo
Vibrio harveyi [11] = test: Antimutagenic activity in Vibrio harveyi BB7M assessed as inhibition of 4-nitroquinoline-N-oxide-induced mutation; assay type: functional
[12] = target: Sodium channel protein type 2 subunit alpha (Homo sapiens) (UniProt Q99250); test: Inhibition of NaV1.2 channel (unknown origin) at 0.1 uM by electrophysiology
Mus musculus [13] = test: Anticonvulsant activity in ip dosed CF-1 albino mouse assessed as protection against maximal electroshock-induced seizures after 0.5 to 4 hrs; assay type: functional
Rattus norvegicus [14] = test: Anticonvulsant activity in Sprague-Dawley albino rat assessed as protection against maximal electroshock-induced seizures at 30 mg/kg, po after 4 hrs; assay type: functional
[15] = Neurotoxicity in ip dosed CF-1 albino mouse at 30 to 300 mg/kg, ip after 0.5 to 4 hrs; assay type: toxicity, organism-based; set-up: route intraperitoneal; conditions: CF-1, mouse, in vivo
Mus musculus [16] = test: Anticonvulsant activity in CF-1 albino mouse assessed as protection against 6 Hz psychomotor seizure at 100 mg/kg, ip after 2 hrs; assay type: functional
Mus musculus [17] = test: Anticonvulsant activity in CF-1 albino mouse assessed as protection against 6 Hz psychomotor seizure at 100 mg/kg, ip after 1 hr; assay type: functional; conditions: route intraperitoneal
Mus musculus [18] = test: Neurotoxicity in CF-1 albino mouse at 300 mg/kg, ip after 4 hrs by rotarod test; assay type: toxicity, organism-based; set-up: dose 300 mg/kg, route intraperitoneal; conditions: in vivo
Vibrio harveyi [19] = test: Antimutagenic activity in Vibrio harveyi BB7 assessed as inhibition of 4-nitroquinoline-N-oxide-induced mutation; assay type: functional
Vibrio harveyi [20] = test: Induction of mutagenecity in Vibrio harveyi BB7X; assay type: organism-based; conditions: in vivo
Rattus norvegicus [21] = test: Anticonvulsant activity in Sprague-Dawley albino rat assessed as protection against maximal electroshock-induced seizures at 30 mg/kg, po after 0.25 hrs; assay type: functional
Mus musculus [22] = test: Anticonvulsant activity in CF-1 albino mouse assessed as protection against 6 Hz psychomotor seizure at 100 mg/kg, ip after 0.5 hrs; assay type: functional
Mus musculus [23] = test: Anticonvulsant activity in CF-1 albino mouse assessed as protection against 6 Hz psychomotor seizure at 100 mg/kg, ip after 4 hrs; assay type: functional
Mus musculus [24] = organism: Mus musculus; test: Protective index, ratio of TD50 for CF-1 albino mouse by rotarod test to ED50 for CF-1 albino mouse; assay type: functional
Rattus norvegicus [25] = test: Anticonvulsant activity in Sprague-Dawley albino rat assessed as protection against maximal electroshock-induced seizures at 30 mg/kg, po after 0.5 hrs; assay type: functional
[26] = target: Sodium channel protein type 2 subunit alpha (Homo sapiens) (UniProt Q99250); test: Inhibition of NaV1.2 channel (unknown origin) at 1 uM by electrophysiology
Mus musculus [27] = test: Anticonvulsant activity in ip dosed CF-1 albino mouse assessed as protection against maximal electroshock-induced seizures after 4 hrs; assay type: functional
[28] = target: Sodium channel protein type 2 subunit alpha (Homo sapiens) (UniProt Q99250); test: Inhibition of NaV1.2 channel (unknown origin) at 10 uM by electrophysiology
Rattus norvegicus [29] = organism: Rattus norvegicus; test: Protective index, ratio of TD50 for Sprague-Dawley albino rat by rotarod test to ED50 for Sprague-Dawley albino rat; assay type: functional
Vibrio harveyi [30] = test: Antimutagenic activity in Vibrio harveyi BB7X assessed as inhibition of 4-nitroquinoline-N-oxide-induced mutation; assay type: functional
[31] = Neurotoxicity in ip dosed CF-1 albino mouse after 0.5 hrs by rotarod test; assay type: toxicity, organism-based; conditions: CF-1, mouse, in vivo
Mus musculus [32] = test: Anticonvulsant activity in CF-1 albino mouse assessed as time of peak effect for protection against maximal electroshock-induced seizures at 30 to 300 mg/kg, ip; assay type: functional; conditions: dose mg/kg 30-300; route intraperitoneal
Rattus norvegicus [33] = test: Anticonvulsant activity in Sprague-Dawley albino rat assessed as time of peak effect for protection against maximal electroshock-induced seizures at 30 mg/kg, po; assay type: functional
[34] = target: Sodium channel protein type 2 subunit alpha (Homo sapiens) (UniProt Q99250); test: Inhibition of NaV1.2 channel (unknown origin) at 100 uM by electrophysiology
Mus musculus [35] = test: Anticonvulsant activity in CF-1 albino mouse assessed as protection against 6 Hz psychomotor seizure at 100 mg/kg, ip after 0.25 to 4 hrs; assay type: functional; conditions: route intraperitoneal
Mus musculus [36] = test: Anticonvulsant activity in CF-1 albino mouse assessed as protection against 6 Hz psychomotor seizure at 100 mg/kg, ip after 0.25 hrs; assay type: functional
Mus musculus [37] = test: Anticonvulsant activity in ip dosed CF-1 albino mouse assessed as protection against maximal electroshock-induced seizures after 0.5 hrs; assay type: functional
[38] = Neurotoxicity in ip dosed CF-1 albino mouse after 4 hrs by rotarod test; assay type: toxicity, organism-based; conditions: CF-1, mouse, in vivo
Mus musculus [39] = test: Neurotoxicity in CF-1 albino mouse at 300 mg/kg, ip after 0.5 hrs by rotarod test; assay type: toxicity, organism-based; set-up: dose 300 mg/kg, route intraperitoneal; conditions: in vivo
Rattus norvegicus [40] = organism: Rattus norvegicus; test: Ratio of phenytoin ED50 to compound ED50 for Sprague-Dawley albino rat; assay type: functional

Chain of Sodium channel protein type 2 subunit alpha (Homo sapiens) (Q99250 whole entry, looked up): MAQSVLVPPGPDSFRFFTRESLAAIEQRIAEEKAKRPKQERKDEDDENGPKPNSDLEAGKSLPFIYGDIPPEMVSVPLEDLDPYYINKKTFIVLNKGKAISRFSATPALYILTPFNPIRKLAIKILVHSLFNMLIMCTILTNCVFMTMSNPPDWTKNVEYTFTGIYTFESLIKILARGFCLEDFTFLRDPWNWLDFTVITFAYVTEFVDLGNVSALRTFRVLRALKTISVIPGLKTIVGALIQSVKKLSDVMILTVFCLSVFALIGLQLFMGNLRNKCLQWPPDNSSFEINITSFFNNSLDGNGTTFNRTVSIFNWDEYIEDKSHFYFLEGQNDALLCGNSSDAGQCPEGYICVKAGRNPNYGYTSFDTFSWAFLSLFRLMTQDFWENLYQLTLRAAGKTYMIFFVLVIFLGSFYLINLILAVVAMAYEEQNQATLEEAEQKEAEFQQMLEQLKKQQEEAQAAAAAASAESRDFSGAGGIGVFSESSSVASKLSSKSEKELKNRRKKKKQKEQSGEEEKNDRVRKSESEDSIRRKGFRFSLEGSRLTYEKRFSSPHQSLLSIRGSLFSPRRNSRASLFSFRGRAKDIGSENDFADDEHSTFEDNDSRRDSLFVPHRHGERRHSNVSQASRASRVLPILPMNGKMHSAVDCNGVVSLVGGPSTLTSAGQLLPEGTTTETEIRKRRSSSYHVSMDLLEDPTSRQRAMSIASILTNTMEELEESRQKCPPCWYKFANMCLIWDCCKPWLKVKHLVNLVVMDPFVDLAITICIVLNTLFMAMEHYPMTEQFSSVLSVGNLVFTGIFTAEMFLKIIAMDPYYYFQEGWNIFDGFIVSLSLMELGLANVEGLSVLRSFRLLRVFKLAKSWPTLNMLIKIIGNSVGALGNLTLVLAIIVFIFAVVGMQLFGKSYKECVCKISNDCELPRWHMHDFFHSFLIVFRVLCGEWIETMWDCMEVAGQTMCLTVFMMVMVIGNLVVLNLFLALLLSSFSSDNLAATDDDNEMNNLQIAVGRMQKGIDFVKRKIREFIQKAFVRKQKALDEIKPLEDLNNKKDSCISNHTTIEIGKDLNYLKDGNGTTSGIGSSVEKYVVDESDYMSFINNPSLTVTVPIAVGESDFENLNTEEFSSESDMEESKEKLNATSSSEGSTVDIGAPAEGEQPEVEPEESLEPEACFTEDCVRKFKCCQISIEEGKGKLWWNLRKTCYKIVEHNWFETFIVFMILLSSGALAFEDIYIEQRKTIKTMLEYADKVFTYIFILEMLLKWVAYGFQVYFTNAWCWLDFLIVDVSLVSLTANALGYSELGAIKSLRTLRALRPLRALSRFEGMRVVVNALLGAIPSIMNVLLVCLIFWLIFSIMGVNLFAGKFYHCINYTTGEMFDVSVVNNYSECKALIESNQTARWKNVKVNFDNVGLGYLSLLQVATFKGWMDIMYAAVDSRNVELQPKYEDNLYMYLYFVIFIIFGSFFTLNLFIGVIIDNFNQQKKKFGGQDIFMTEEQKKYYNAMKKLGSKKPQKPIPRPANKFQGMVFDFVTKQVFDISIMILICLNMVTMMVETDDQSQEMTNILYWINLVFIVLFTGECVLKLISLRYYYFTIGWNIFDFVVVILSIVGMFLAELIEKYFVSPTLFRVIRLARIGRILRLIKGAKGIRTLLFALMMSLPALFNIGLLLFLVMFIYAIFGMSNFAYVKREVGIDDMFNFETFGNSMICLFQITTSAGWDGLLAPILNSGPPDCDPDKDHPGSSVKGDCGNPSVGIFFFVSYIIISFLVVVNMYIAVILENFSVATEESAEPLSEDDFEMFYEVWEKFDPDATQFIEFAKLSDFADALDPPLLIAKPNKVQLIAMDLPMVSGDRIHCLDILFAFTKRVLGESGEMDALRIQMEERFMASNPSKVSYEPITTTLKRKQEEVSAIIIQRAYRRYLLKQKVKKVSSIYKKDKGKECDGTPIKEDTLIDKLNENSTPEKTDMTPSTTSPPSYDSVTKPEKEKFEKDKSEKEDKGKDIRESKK

| SMILES | Activity (Mus musculus [1]) | Activity (Vibrio harveyi [2]) | ED50 (Rattus norvegicus [3]) | Activity (Vibrio harveyi [4]) | Activity (Rattus norvegicus [5]) | Activity (Rattus norvegicus [7]) | TD50 [8] | Activity (Rattus norvegicus [9]) | Activity (Vibrio harveyi [10]) | inhibition [12] | ED50 (Mus musculus [13]) | Activity (Rattus norvegicus [14]) | TD50 [15] | Activity (Mus musculus [17]) | Activity (Mus musculus [18]) | Activity (Vibrio harveyi [20]) | Activity (Rattus norvegicus [21]) | Activity (Rattus norvegicus [25]) | MED50 (Mus musculus [27]) | TD50 at 0.5 h [31] | further results |
| --- | --- | --- | --- | --- | --- | --- | --- | --- | --- | --- | --- | --- | --- | --- | --- | --- | --- | --- | --- | --- | --- |
| CC1(c2ccccc2)CC(=O)N(CN2CCN(c3cccc(Cl)c3)CC2)C1=O (stereo not given) | inactive | Non-toxic | 27.9 mg/kg | Non-toxic | Active | Non-toxic | > 250 mg/kg | 25% | Non-toxic | 16.3% | 41.1 mg/kg | 50% | 496 mg/kg | 50% | Non-toxic | Non-toxic | inactive | 25% | 30 mg/kg | 300 mg/kg | inhibition (INH) (Vibrio harveyi [6]): 57%; inhibition (INH) (Vibrio harveyi [11]): 61%; Activity (Mus musculus [16]; route intraperitoneal): 50%; inhibition (INH) (Vibrio harveyi [19]): 25%; Activity (Mus musculus [22]; route intraperitoneal): 25%; Activity (Mus musculus [23]; route intraperitoneal): 25%; Ratio TD50/ED50 (Mus musculus [24]): 12.08; inhibition [26]: 7.76%; inhibition [28]: 39.6%; Ratio TD50/ED50 (Rattus norvegicus [29]): >8.95; inhibition (INH) (Vibrio harveyi [30]): 0%; Time (Mus musculus [32]): 6 h; Time (Rattus norvegicus [33]): 2 h; inhibition [34]: 86.9%; Activity (Mus musculus [35]): 50%; Activity (Mus musculus [36]): inactive |
| CC1(c2ccccc2)CC(=O)N(CN2CCN(c3ccc(Cl)c(Cl)c3)CC2)C1=O (stereo not given) | inactive | Toxic | 15.1 mg/kg | Toxic | 50% | Non-toxic | 168 mg/kg | inactive | Non-toxic | 3.08% | 37.3 mg/kg | Active | > 500 mg/kg | 25% | Non-toxic | Non-toxic | inactive | inactive | 30 mg/kg | 300 mg/kg | Activity (Mus musculus [16]): inactive; Activity (Mus musculus [22]): inactive; Activity (Mus musculus [23]): inactive; Ratio TD50/ED50 (Mus musculus [24]): >13.41; inhibition [26]: 15.1%; inhibition [28]: 58.6%; Ratio TD50/ED50 (Rattus norvegicus [29]): 11.09; Time (Mus musculus [32]): 4 h; Time (Rattus norvegicus [33]): 4 h; inhibition [34]: 96.7%; Activity (Mus musculus [35]): 50%; Activity (Mus musculus [36]; route intraperitoneal): 25% |
| Cc1cccc(N2CCN(CN3C(=O)CC(C)(c4ccccc4)C3=O)CC2)c1 (stereo not given) |  | Toxic |  | Toxic | 50% | Non-toxic |  | 50% | Non-toxic |  |  | 50% |  |  |  | Non-toxic | inactive | inactive | 100 mg/kg | 300 mg/kg | MED50 (Mus musculus [37]): 100 mg/kg; TD50 at 4 h [38]: 300 mg/kg |
| COc1ccccc1N1CCN(CN2C(=O)CC(C)(c3ccccc3)C2=O)CC1 (stereo not given) |  | Toxic |  | Toxic | 50% | Non-toxic |  | 50% | Non-toxic |  |  | 50% |  |  |  | Non-toxic | inactive | inactive | 100 mg/kg | 300 mg/kg | MED50 (Mus musculus [37]): 100 mg/kg; TD50 at 4 h [38]: 300 mg/kg |
| CC1(c2ccccc2)CC(=O)N(CN2CCN(c3ccc(F)cc3)CC2)C1=O (stereo not given) | inactive | Non-toxic | 7.78 mg/kg | Non-toxic | 75% | Non-toxic | 65.6 mg/kg | 50% | Non-toxic | 10.6% | 120 mg/kg | 75% | > 500 mg/kg | 25% |  | Non-toxic | 25% | 25% | 100 mg/kg |  | inhibition (INH) (Vibrio harveyi [6]): 49%; inhibition (INH) (Vibrio harveyi [11]): 62%; Activity (Mus musculus [16]): Active; Activity (Mus musculus [39]): Non-toxic; inhibition (INH) (Vibrio harveyi [19]): 8%; Activity (Mus musculus [22]): inactive; Ratio ED50 (Rattus norvegicus [40]): 3.5; Activity (Mus musculus [23]): Active; Ratio TD50/ED50 (Mus musculus [24]): 4.16; TD50 at 4 h [38]: 300 mg/kg; inhibition [26]: 14.9%; inhibition [28]: 26.8%; Ratio TD50/ED50 (Rattus norvegicus [29]): 8.43; inhibition (INH) (Vibrio harveyi [30]): 0%; Time (Mus musculus [32]): 8 h; Time (Rattus norvegicus [33]): 4 h; inhibition [34]: 64%; Activity (Mus musculus [36]; route intraperitoneal): 50% |
| COc1cccc(N2CCN(CN3C(=O)CC(C)(c4ccccc4)C3=O)CC2)c1 (stereo not given) |  | Toxic |  | Toxic |  |  |  |  | Non-toxic |  |  |  |  |  | Non-toxic | Non-toxic |  |  | 100 mg/kg |  | MED50 (Mus musculus [37]): 100 mg/kg; Activity (Mus musculus [39]): Non-toxic |
